Experimental data from patent US6686334B2, “Use of inhibitors of protein kinase C epsilon to treat pain” (Regents of the University of California, priority 1998, dated 2004).
“Also recorded” adds a separate entry of the source. Read-outs that look alike come from different tables or passages of the source.

Legend:
[1] = tested on: carrageenan-induced hyperalgesia; assay: Carrageenan-induced acute hyperalgesia, mechanical stimuli; assay type: in vivo, rat; conditions: 1 μg injected at the same time as carrageenan
Procedure: The acetic acid writhing experiments reported in Example 3 indicate that PKCε contributes to inflammatory pain. To investigate whether PKCε mediates hyperalgesia induced by other inflammatory agents, rats received intradermal 10 μl injections of a 1% solution of carrageenan, a potent irritant (Ferreira, S. H. et al, Nature 334, 698-700 (1988)) and three and a half hours later, the rats received no treatment (n=12; labeled “Car-4” on FIG. 13) or intradermal injections of sterile water followed by intradermal injections of either 1 μg εV1-2, a PKCε inhibitory peptide (n=6; labeled “εV” on FIG. 13), or 1 μg S-VεV1-2, a scrambled version of the εV1-2 peptide (n=6; labeled “S-εV” on FIG. 13).
To examine whether protein kinase C modulates the processes by which a brief inflammatory event causes prolonged hyperalgesia many days later, rats received carrageenan and 1 μg BIM injections at the same time. Hyperalgesia was measured 72 hours later, when the rats were treated PGE2. […] Therefore, administration of an inhibitor of PKC either at approximately the same time as the inflammatory agent giving rise to chronic, prolonged hyperalgesia or at about the same time as the hyperalgesia-inducing stimulus can lessen such chronic hyperalgesia.

[2] = tested on: epinephrine-induced hyperalgesia; assay: Epinephrine-induced mechanical hyperalgesia, paw withdrawal threshold (Ugo Basile Analgesimeter); assay type: in vivo, rat; conditions: for Percentage decrease in nociceptive threshold in response to epinephrine: epinephrine 100 ng, DAMGO, SQ22536, BIM, Rp-cAMPs 1 μg, WIPTIDE 0.1 μg, larger value = more hyperalgesia; for Effect on epinephrine-induced hyperalgesia: rat hindpaw, intradermal, mechanical stimulus
Procedure: The roles of PKC, protein kinase A (“PKA”) and the μ-opioid receptor in mediating epinephrine-induced hyperalgesia were assessed by measuring the effects of: Rp-adenosine 3′, 5′-cyclic monophosphate (“Rp-cAMPs”) and WIPTIDE, both inhibitors of PKA; SQ22536, an inhibitor of adenylyl cyclase, an enzyme activated by PKA; bisindolymaleimide (“BIM”), a nonselective inhibitor of PKC isozymes; and [D-Ala^2, N-Me-Phe^4, Gly^5-ol]-enkephalin (“DAMGO”), μ-opioid receptor agonist. The dose for each inhibitor was 1 μg, except for WIPTIDE, which was administered in a 100 ng dose.

[3] = tested on: tetrodotoxin-resistant sodium current (TTX-RINa); assay type: cell-based, rat; conditions: for Effect on epinephrine-induced potentiation of TTX-RINa: 1 μM epinephrine, propranolol 2 μM, phentolamine 5 μM, Rp-cAMPs 100 μM, BIM 100 μM
[4] = tested on: prolonged PGE2-induced hyperalgesia; assay: Prolonged hyperalgesia in carrageenan-sensitized rats (chronic inflammatory pain model); assay type: in vivo, rat; conditions: 1 μg at the same time as carrageenan; PGE2 72 or more hours later
Excerpt: In order to investigate the role, if any, of PKCε in chronic inflammatory pain, the following model system for chronic inflammatory pain was developed. Rats received intradermal hind paw injections of carrageenan, an inflammatory agent. […] This was considered an acute response to the carrageenan-induced inflammation. Although administration of Prostaglandin E2 (“PGE2”), 5-hydroxytryptamine (“5-HT,” serotonin) or CGS-21680 (an adenosine A2-selective receptor agonist) normally causes untreated rats (that is, rats that have not received carrageenan injections) to experience hyperalgesia lasting up to 6 hours, the hyperalgesia experienced by carrageenan-sensitized rats following administration of any one of these substances lasted up to 24 hours.
The prolonged PGE2-induced hyperalgesia normally seen in carrageenan-sensitized rats was inhibited by administration of BIM or εV1-2.
To examine whether protein kinase C modulates the processes by which a brief inflammatory event causes prolonged hyperalgesia many days later, rats received carrageenan and 1 μg BIM injections at the same time. Hyperalgesia was measured 72 hours later, when the rats were treated PGE2. […]

[5] = tested on: isoproterenol-induced hyperalgesia; assay: Isoproterenol-induced mechanical hyperalgesia, paw withdrawal threshold; assay type: in vivo, rat; conditions: for Effect on isoproterenol-induced hyperalgesia: rat hindpaw, intradermal
[6] = tested on: PGE2-induced hyperalgesia; assay: PGE2-induced mechanical hyperalgesia, paw withdrawal threshold; assay type: in vivo, rat; conditions: PGE2 100 ng; for Effect on PGE2-induced hyperalgesia: rat hindpaw, mechanical stimulus
Procedure: The roles of PKC, protein kinase A (“PKA”) and the μ-opioid receptor in mediating epinephrine-induced hyperalgesia were assessed by measuring the effects of: Rp-adenosine 3′, 5′-cyclic monophosphate (“Rp-cAMPs”) and WIPTIDE, both inhibitors of PKA; SQ22536, an inhibitor of adenylyl cyclase, an enzyme activated by PKA; bisindolymaleimide (“BIM”), a nonselective inhibitor of PKC isozymes; and [D-Ala^2, N-Me-Phe^4, Gly^5-ol]-enkephalin (“DAMGO”), μ-opioid receptor agonist. The dose for each inhibitor was 1 μg, except for WIPTIDE, which was administered in a 100 ng dose. DAMGO was co-injected with epinephrine whereas the other inhibitors were applied 15 minutes prior to epinephrine injection.
For mechanical nociceptive testing, the nociceptive flexion reflex was quantified using an Ugo Basile analgesymeter that applies a constantly increasing force measured in grams (Stoelting, Chicago, Ill.; K. O. Aley, J. D. Levine, J. Neurosci. 17, 8018-23 (1997)). The mean basal mechanical threshold for rats used in these experiments was 105.3+/−2.8 grams. The effects of hyperalgesia-inducing agents epinephrine (100 ng) and PGE2 (100 ng) on mechanical nociceptive thresholds were determined by measuring paw withdrawal frequencies at 15, 20, and 25 minutes after administration of the hyperalgesic agent and then calculating the mean of these three readings.

[7] = tested on: diabetes-induced hyperalgesia; assay: Streptozotocin diabetes-induced hyperalgesia, mechanical stimuli; assay type: in vivo, rat; conditions: 1 μg intradermal after sterile water, four weeks after streptozotocin 70 mg/kg
Procedure: Persons with uncontrolled or poorly controlled diabetes frequently experience hyperalgesia. The role of PKCε in diabetic neuropathy was examined in a model of diabetes in which male Sprague-Dawley rats receive subcutaneous injection of streptozotocin (70 mg/kg), a pancreatic β-cell toxin. These rats display hyperglycemia and glucosuria within 24 hours after the injection and show decreased nociceptive thresholds in response to mechanical stimuli administered by Ugo Basile analgesymeter in the hind paw after one week (Ahlgren, S. C. et al, J. Neurophysiology, 68, 2077-2085 (1992); Ahlgren, S. C. and Levine, J. D., Neuroscience 52, 1049-1055 (1993)). Four weeks after the streptozotocin injection, each rat received no treatment (n=8) or an intradermal injection of sterile water followed by a intradermal injections of (1) 1 μg bisindolymaleimide, a protein kinase C inhibitor (n=4; labeled “BIM” on FIG. 12B), (2) 1 μg εV1-2, a PKCε inhibitory peptide (n=8; labeled “PKCεI” on FIG. 12B), or (3) 1 μg S-VεV1-2, a scrambled version of the εV1-2 peptide (n=4; labeled “PCKεI SCR” on FIG. 12B) and were subsequently exposed to mechanical stimuli.

wild-type mice = assay: von Frey hair paw withdrawal frequency in mice; assay type: in vivo, mouse; conditions: 100 ng intraplantar, wild-type mice, 4, 6.9 or 14.8 grams
Procedure: Mechanical, thermal and chemical nociception were evaluated in wild-type and PKCε-mutant mice. For both wild-type (n=8) and PKCε-mutant (n=8) mice, the basal mechanical nociceptive threshold was measured as the frequency at which mice withdrew their paws after being poked in the hindpaw with a von Frey Hair (“VFH”; Stoelting Co.) applying a force of 4, 6.9 or 14.8 grams.

[8] = tested on: PGE2-induced hyperalgesia; conditions: PGE2 100 ng; inhibitor 1 μg; data from Khasar 1995 or Taiwo and Levine 1991; cited from earlier work
[9] = Rotorod analysis of motor deficits; assay type: in vivo, rat; conditions: vincristine 100 μg/kg intravenously daily
Procedure: (§1) Humans undergoing chemotherapy frequently experience hyperalgesia. Vincristine is a chemotherapeutic drug known to cause such hyperalgesia, and a rat model of vincristine-induced hyperalgesia was established as follows. Vincristine (100 μg/kg in saline; Sigma Chemical Catalog) was administered intravenously daily to each of 32 rats over a period of two weeks.

[10] = tested on: vincristine-induced hyperalgesia; assay: Vincristine-induced hyperalgesia, mechanical stimuli (Ugo Basile analgesymeter); assay type: in vivo, rat; conditions: vincristine 100 μg/kg intravenously daily, after the second day
Procedure: as §1
To determine whether administration of an inhibitor of PKCε would lessen vincristine-induced hyperalgesia in the rat model described above, on the 13th day of vincristine treatment, rats received no treatment (n=16) or intradermal injections of sterile water followed by intradermal injections of either 1 μg εV1-2, a PKCε inhibitory peptide (n=8; labeled “PKCεI” on FIG. 12A), or 1 μg S-VεV1-2, a scrambled version of the εV1-2 peptide (n=8; labeled “PCKεI SCR” on FIG. 12A), 20-30 minutes before administration of a mechanical stimulus.

[11] = tested on: formalin-induced hyperalgesia; conditions: earlier studies; cited from earlier work
[12] = tested on: PGE2-induced hyperalgesia; conditions: earlier studies; cited from earlier work
[13] = similar dose, normal rat, earlier studies; cited from earlier work
[14] = tested on: small diameter DRG neurons; assay: Current-clamp (perforated-patch whole-cell) excitability of cultured DRG neurons; assay type: cell-based, rat
[15] = after 1 μg epinephrine injection
[16] = 10 μM propranolol 30 seconds prior to and with 1 μM epinephrine

CN(C)CCCn1cc(C2=C(c3c[nH]c4ccccc34)C(=O)NC2=O)c2ccccc21 [BIM, bisindolymaleimide I]
Effect on acute hyperalgesia induced by carrageenan [1]: attenuated
Percentage decrease in nociceptive threshold in response to epinephrine [2]: 4.6 ± 2.1 %
Effect on epinephrine-induced hyperalgesia [2]: inhibits epinephrine-induced hyperalgesia to a similar extent as εV1-2
Effect on epinephrine-induced potentiation of TTX-RINa [3]: significantly decreased
Effect on prolonged hyperalgesia on PGE2 treatment after carrageenan [4]: attenuated
Percentage decrease in nociceptive threshold in response to isoproterenol ([5]; isoproterenol 100 ng, BIM 1 μg, WIPTIDE 0.1 μg): 7.1 ± 2.4 %
Effect on isoproterenol-induced hyperalgesia [5]: significantly attenuated
Percentage decrease in nociceptive threshold in response to PGE2 ([6]; BIM 1 μg, WIPTIDE 0.1 μg): 33.4 ± 4.1%
Effect on PGE2-induced hyperalgesia [6]: no effect
Effect on diabetes-induced decrease in nociceptive threshold [7]: somewhat greater reduction in the percentage decrease in nociceptive threshold than PKCε I; also recorded: markedly reduced

CNC[C@H](O)c1ccc(O)c(O)c1 [Epinephrine, epinephrine]
Duration of hyperalgesia [2, 15]: approximately 2 hours
Onset latency of hyperalgesia (significant) [2, 15]: 2 min
Time to peak hyperalgesic effect [2, 15]: ≤ 5 min
Effect on paw withdrawal threshold ([2]; intradermal 1 ng to 1 μg, dorsal hindpaw): dose-dependent decrease
Effect on TTX-RINa ([3]; epinephrine 1 μM): marked potentiation
Percent-withdrawal response to VFH stimulus (wild-type mice): dramatically increased

CC(C)NCC(O)c1ccc(O)c(O)c1 (stereo not shown) [Isoproterenol, isoproterenol]
Hyperalgesia produced in the absence of epinephrine ([5]; intradermal injection): dose-dependent hyperalgesia
Percentage decrease in nociceptive threshold in response to isoproterenol alone ([5]; isoproterenol 100 ng alone): 25.8 ± 0.9%

CCCCC[C@H](O)/C=C/[C@H]1[C@H](O)CC(=O)[C@@H]1C/C=C\CCCC(=O)O [PGE2, prostaglandin E2]
Percent-withdrawal response to VFH stimulus (wild-type mice): dramatically increased

Nc1ncnc2c1ncn2[C@@H]1O[C@@H]2CO[P@@](O)(=S)O[C@H]2[C@H]1O [Rp-cAMPs, Rp-adenosine 3′, 5′-cyclic monophosphate]
Effect on epinephrine-induced potentiation of TTX-RINa [3]: abolished

Nc1ncnc2c1ncn2C1CCCO1 (stereo not shown) [SQ22536]
Percentage decrease in nociceptive threshold in response to PGE2 [8]: 10.0 ± 2.9 %
Percentage decrease in nociceptive threshold in response to epinephrine [2]: 9.5 ± 2.4 %

CC[C@]1(O)C[C@H]2CN(CCc3c([nH]c4ccccc34)[C@@](C(=O)OC)(c3cc4c(cc3OC)N(C=O)[C@H]3[C@@](O)(C(=O)OC)[C@H](OC(C)=O)[C@]5(CC)C=CCN6CC[C@]43[C@@H]65)C2)C1 [Vincristine]
Motor deficits [9]: did not show any significant motor deficits
Effect on mechanical nociceptive thresholds [10]: acute dose-dependent decrease

COc1ccc2c(c1)c(CC(=O)O)c(C)n2C(=O)c1ccc(Cl)cc1 [indomethacin]
Effect on epinephrine-induced hyperalgesia [2]: Neither indomethacin treatment nor sympathectomy had any effect

Cc1ccc(N(CC2=NCCN2)c2cccc(O)c2)cc1 [phentolamine]
Effect on formalin-induced hyperalgesia [11]: significantly reversed
Effect on epinephrine-induced hyperalgesia [2]: did not significantly affect
Effect on the ability of rolipram to prolong PGE2-induced hyperalgesia [12]: inhibited
Effect on basal paw threshold [13]: no effect

CC(C)NCC(O)COc1cccc2ccccc12 (stereo not shown) [propranolol]
First-spike latency after epinephrine addition [14, 16]: 233 ± 10 ms
Spike number after epinephrine addition [14, 16]: 1.3±0.2
Effect on epinephrine-induced increase in spike number and decrease in first-spike latency ([14]; 10 μM propranolol, 1 μM epinephrine): abolished
Effect on epinephrine-induced hyperalgesia [2]: significantly attenuated
Effect on epinephrine-induced potentiation of TTX-RINa [3]: eliminated this potentiation
Effect on isoproterenol-induced hyperalgesia [5]: significantly attenuated

WIPTIDE
Effect on isoproterenol-induced hyperalgesia [5]: almost completely abolished
Effect on PGE2-induced hyperalgesia [6]: significantly attenuated
